Source: US20030083385A1, “Use of benzenesulfonyl (thioureas or ure as) for treating of septic shock or gene ralized inflammatory syndrome” (priority 2001, published 2003)
Counter-ions that a name gives are not always drawn.

Legend:
[1] = test system: anesthetized pigs infused continuously with lipopolysaccharide (LPS); assay: Endotoxin (LPS) model in anesthetized pigs, continuous LPS infusion; assay type: in vivo, pig
Excerpt: (§1) The suitability of a compound of formula I for treating pathological changes in blood pressure associated with septic shock or occurring in the generalized inflammatory syndrome (SIRS) state can be established, for example, in the pharmacological model in the pig that is described further below (endotoxin model, synonym: LPS model (LPS=lipopolysaccharide)). The effect can also be examined, for example, in rats, mice, cats, guinea pigs, rabbits, dogs or monkeys.
Anesthetized pigs were infused continuously with lipopolysaccharide (LPS) (0.15 μg/kg/h; n=7). This led to a decrease in the peripheral resistance. After 3.9 hours, 1-(5-(2-(5-chloro-2-methoxybenzamido)ethyl)-2-(2-methoxyethoxy)phenyl-sulfonyl)-3-methylthiourea sodium salt was administered at a dose of 5-10 mg/kg (intravenously; aqueous solution). […] The peripheral resistance, which under the effect of the endotoxin had fallen to 60.8±4.1% of the starting value that had been present prior to administering the endotoxin, rose to 80.8±5.1% of the starting value that had been present prior to administering the endotoxin (p<0.0001).

[2] = test system: anesthetized pigs given lipopolysaccharide (LPS) as a bolus; assay: Endotoxin (LPS) model in anesthetized pigs, LPS bolus; assay type: in vivo, pig; conditions: LPS 1 μg/kg bolus, n=5, LPS raised pressure from 30.6±0.7 to 67.2±6.0 mm Hg, compound 5 mg/kg intravenously, p<0.01
Excerpt: as §1
In another experimental approach performed on anesthetized pigs, 1 μg/kg of LPS was administered as a bolus (n=5). This led, within 15-20 min, to a dangerous increase in the systolic pulmonary arterial pressure from 30.6±0.7 mm Hg to 67.2±6.0 mm Hg.

CNC(=S)NS(=O)(=O)c1cc(CCNC(=O)c2cc(Cl)ccc2OC)ccc1OCCOC [1-(5-(2-(5-chloro-2-methoxybenzamido)ethyl)-2-(2-methoxyethoxy)phenyl-sulfonyl)-3-methylthiourea sodium salt]
rise of peripheral mean arterial blood pressure ([1]; LPS 0.15 μg/kg/h continuous infusion, n=7, compound 5-10 mg/kg intravenously (aqueous solution) after 3.9 hours, p<0.001): 19.6±3.2 mm Hg
peripheral resistance after administration ([1]; LPS 0.15 μg/kg/h continuous infusion, n=7, compound 5-10 mg/kg intravenously after 3.9 hours, had fallen to 60.8±4.1% under endotoxin, p<0.0001): 80.8±5.1 % of the starting value
effect when administered as an infusion ([1]; LPS model, infusion, total dose 5-10 mg/kg, seen already after a dose of 1-2.5 mg/kg had been infused): marked improvement
systolic pulmonary arterial pressure after administration [2]: 46.6±4.0 mm Hg
